# Experimental data reported in US6737383B1, “Herbicidal oxadiazolidines” (priority 1999, dated 2004).
# Key:
# rice = assay: Test B flood test rice; format: in vivo, Oryza sativa
# Summary of the method: (§1)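 Flood test on plants grown to the 2-leaf stage; treated plants kept in greenhouse twelve to sixteen days, then visually rated against controls on a 0 (no effect) to 10 (complete control) scale.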
# surinam grass = assay: Test B pre/postemergence surinam grass; format: in vivo, Brachiaria decumbens
# Summary of the method: (§2)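 Response is a visual 0-to-10 score relative to untreated plants, where 0 means no effect and 10 means complete control, taken twelve to sixteen days after application. Treatments went onto soil at planting and onto foliage of 1- to 4-leaf plants, using a surfactant-containing non-phytotoxic solvent.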
# pigweed = assay: Test B pre/postemergence pigweed; format: in vivo, Amaranthus retroflexus
# Summary of the method: as §2
# sugar beet = assay: Test B pre/postemergence sugar beet; format: in vivo, Beta vulgaris
# Summary of the method: as §2
# smallflower flatsedge = assay: Test B flood test smallflower flatsedge; format: in vivo, Cyperus difformis
# Summary of the method: as §1
# bedstraw = assay: Test B pre/postemergence bedstraw; format: in vivo, Galium aparine; conditions: Postemergence
# Summary of the method: as §2
# rape = assay: Test B pre/postemergence rape; format: in vivo, Brassica napus
# Summary of the method: as §2
# corn = assay: Test B pre/postemergence corn; format: in vivo, Zea mays
# Summary of the method: as §2
# soybean = assay: Test B pre/postemergence soybean; format: in vivo, Glycine max
# Summary of the method: as §2
# wild oat = assay: Test B pre/postemergence wild oat; format: in vivo, Avena fatua
# Summary of the method: as §2
# blackgrass = assay: Test B pre/postemergence blackgrass; format: in vivo, Alopecurus myosuroides
# Summary of the method: as §2
# giant foxtail = assay: Test B pre/postemergence giant foxtail; format: in vivo, Setaria faberii
# Summary of the method: as §2
# cocklebur = assay: Test B pre/postemergence cocklebur; format: in vivo, Xanthium strumarium
# Summary of the method: as §2
# velvetleaf = assay: Test B pre/postemergence velvetleaf; format: in vivo, Abutilon theophrasti
# Summary of the method: as §2
# morningglory = assay: Test B pre/postemergence morningglory; format: in vivo, Ipomoea hederacea
# Summary of the method: as §2
# wheat = assay: Test B pre/postemergence wheat; format: in vivo, Triticum aestivum
# Summary of the method: as §2
# [1] = Rate 62 g/ha, flood test species, Pre-emergence, visual evaluation after twelve to sixteen days
# [2] = Rate 125 g/ha, under heading Pre-emergence, flood test species, visual evaluation after twelve to sixteen days
# [3] = Rate 250 g/ha, Pre-emergence (flood test species), scale 0 to 10, 0 is no effect, 10 is complete control
# [4] = Rate 500 g/ha, Pre-emergence section of Table B, 0 to 10 scale (0 no effect, 10 complete control)
# [5] = Postemergence, Rate 62 g/ha, scale 0 to 10, 0 is no effect, 10 is complete control
# [6] = Postemergence, Rate 125 g/ha, scale of 0 to 10 where 0 is no effect and 10 is complete control
# [7] = Postemergence, Rate 250 g/ha, scale of 0 to 10, 0 is no effect, 10 is complete control
# [8] = Preemergence, Rate 62 g/ha, scale of 0 to 10 where 0 is no effect and 10 is complete control
# [9] = Preemergence, Rate 125 g/ha, scale of 0 to 10 where 0 is no effect and 10 is complete control
# [10] = Preemergence, Rate 250 g/ha, scale 0 to 10 (0 no effect, 10 complete control)
# [11] = Preemergence, Rate 500 g/ha, scale of 0 to 10 where 0 is no effect and 10 is complete control
# [12] = Rate 500 g/ha, Postemergence, scale 0 to 10, 0 is no effect, 10 is complete control
structure (smiles),measurement,setting,value
CC(C)N(C(=O)n1oc(=O)n(CCC(=O)N(C)C)c1=O)c1ccccc1 [Compound 671],"Plant response rating, Rice (0 to 10 scale, 0 is no effect, 10 is complete control)",rice; [1],0
same,"Rice plant response rating (0 to 10 scale, 0 is no effect, 10 is complete control)",rice; [2],0
same,Rice plant response rating,rice; [3],0
same,Rice plant response rating,rice; [4],0
same,"Plant response rating, B. signalgrass",surinam grass; [5],0
same,"Plant response rating, B. signalgrass",surinam grass; [6],1
same,B. signalgrass plant response rating,surinam grass; [7],6
same,B. signalgrass plant response rating,surinam grass; [8],4
same,"Plant response rating, B. signalgrass",surinam grass; [9],6
same,"Plant response rating, B. signalgrass",surinam grass; [10],7
same,"Plant response rating, B. signalgrass",surinam grass; [11],9
same,B. signalgrass plant response rating,surinam grass; [12],8
same,"Plant response rating, Redroot pigweed",pigweed; [5],0
same,Redroot pigweed plant response rating,pigweed; [6],1
same,Redroot pigweed plant response rating,pigweed; [8],0
same,"Plant response rating, Redroot pigweed",pigweed; [9],2
same,"Plant response rating, Redroot pigweed",pigweed; [10],10
same,"Plant response rating, Redroot pigweed",pigweed; [11],10
same,Redroot pigweed plant response rating,pigweed; [12],5
same,"Plant response rating, Sugarbeets",sugar beet; [5],0
same,Sugarbeets plant response rating,sugar beet; [6],0
same,Sugarbeets plant response rating,sugar beet; [8],1
same,"Plant response rating, Sugarbeets",sugar beet; [9],9
same,"Plant response rating, Sugarbeets",sugar beet; [10],9
same,"Plant response rating, Sugarbeets",sugar beet; [11],9
same,Sugarbeets plant response rating,sugar beet; [12],3
same,"Plant response rating, S. Flatsedge (0 to 10 scale, 0 is no effect, 10 is complete control)",smallflower flatsedge; [1],0
same,"S. Flatsedge plant response rating (0 to 10 scale, 0 is no effect, 10 is complete control)",smallflower flatsedge; [2],0
same,S. Flatsedge plant response rating,smallflower flatsedge; [3],0
same,S. Flatsedge plant response rating,smallflower flatsedge; [4],0
same,Bedstraw plant response rating,"bedstraw; Rate 125 g/ha, scale of 0 to 10 where 0 is no effect and 10 is complete control",0
same,Bedstraw plant response rating,"bedstraw; Rate 250 g/ha, scale of 0 to 10, 0 is no effect, 10 is complete control",0
same,Bedstraw plant response rating,"bedstraw; Rate 500 g/ha, scale 0 to 10, 0 is no effect, 10 is complete control",0
same,"Plant response rating, Rape",rape; [5],0
same,Rape plant response rating,rape; [6],0
same,Rape plant response rating,rape; [8],0
same,"Plant response rating, Rape",rape; [9],0
same,"Plant response rating, Rape",rape; [10],0
same,"Plant response rating, Rape",rape; [11],8
same,Rape plant response rating,rape; [12],2
same,"Plant response rating, Corn",corn; [5],0
same,Corn plant response rating,corn; [6],0
same,Corn plant response rating,corn; [7],0
same,Corn plant response rating,corn; [8],0
same,"Plant response rating, Corn",corn; [9],0
same,"Plant response rating, Corn",corn; [10],3
same,"Plant response rating, Corn",corn; [11],9
same,Corn plant response rating,corn; [12],5
same,"Plant response rating, Soybean",soybean; [5],2
same,Soybean plant response rating,soybean; [6],2
same,Soybean plant response rating,soybean; [8],0
same,"Plant response rating, Soybean",soybean; [9],0
same,"Plant response rating, Soybean",soybean; [10],0
same,"Plant response rating, Soybean",soybean; [11],3
same,Soybean plant response rating,soybean; [12],4
same,"Plant response rating, Wild oats",wild oat; [5],0
same,Wild oats plant response rating,wild oat; [6],0
same,Wild oats plant response rating,wild oat; [8],0
same,"Plant response rating, Wild oats",wild oat; [9],0
same,"Plant response rating, Wild oats",wild oat; [10],7
same,"Plant response rating, Wild oats",wild oat; [11],5
same,Wild oats plant response rating,wild oat; [12],0
same,"Plant response rating, Blackgrass",blackgrass; [5],0
same,Blackgrass plant response rating,blackgrass; [6],6
same,Blackgrass plant response rating,blackgrass; [7],8
same,Blackgrass plant response rating,blackgrass; [8],5
same,"Plant response rating, Blackgrass",blackgrass; [9],7
same,"Plant response rating, Blackgrass",blackgrass; [10],8
same,"Plant response rating, Blackgrass",blackgrass; [11],10
same,Blackgrass plant response rating,blackgrass; [12],8
same,"Plant response rating, Giant foxtail",giant foxtail; [5],5
same,Giant foxtail plant response rating,giant foxtail; [6],5
same,Giant foxtail plant response rating,giant foxtail; [7],9
same,Giant foxtail plant response rating,giant foxtail; [8],8
same,"Plant response rating, Giant foxtail",giant foxtail; [9],9
same,"Plant response rating, Giant foxtail",giant foxtail; [10],10
same,"Plant response rating, Giant foxtail",giant foxtail; [11],10
same,Giant foxtail plant response rating,giant foxtail; [12],9
same,"Plant response rating, Cocklebur",cocklebur; [5],0
same,Cocklebur plant response rating,cocklebur; [6],0
same,Cocklebur plant response rating,cocklebur; [7],0
same,Cocklebur plant response rating,cocklebur; [8],0
same,"Plant response rating, Cocklebur",cocklebur; [9],0
same,"Plant response rating, Cocklebur",cocklebur; [10],0
same,"Plant response rating, Cocklebur",cocklebur; [11],1
same,Cocklebur plant response rating,cocklebur; [12],1
same,"Plant response rating, Velvetleaf",velvetleaf; [5],0
same,Velvetleaf plant response rating,velvetleaf; [6],0
same,Velvetleaf plant response rating,velvetleaf; [8],2
same,"Plant response rating, Velvetleaf",velvetleaf; [9],7
same,"Plant response rating, Velvetleaf",velvetleaf; [10],7
same,"Plant response rating, Velvetleaf",velvetleaf; [11],9
same,Velvetleaf plant response rating,velvetleaf; [12],3
same,"Plant response rating, Morningglory",morningglory; [5],1
same,Morningglory plant response rating,morningglory; [6],1
same,Morningglory plant response rating,morningglory; [7],1
same,Morningglory plant response rating,morningglory; [8],0
same,"Plant response rating, Morningglory",morningglory; [9],2
same,"Plant response rating, Morningglory",morningglory; [10],5
same,"Plant response rating, Morningglory",morningglory; [11],8
same,Morningglory plant response rating,morningglory; [12],6
same,"Plant response rating, Wheat",wheat; [5],0
same,Wheat plant response rating,wheat; [6],0
same,Wheat plant response rating,wheat; [8],0
same,"Plant response rating, Wheat",wheat; [9],0
same,"Plant response rating, Wheat",wheat; [10],3
same,"Plant response rating, Wheat",wheat; [11],8
same,Wheat plant response rating,wheat; [12],6
